Assay results published in patent publication US8722910B2, “Diyne compositions” (Evolva AG, priority 2009, dated 2014).
Converted amounts (≈) assume the structure as drawn.

Columns and labels:
CYP3A = assay: Inhibition of cytochrome P450 enzymes; type: in vitro ADME; details: human
Method: (§1) Peak areas corresponding to the metabolite of each substrate were recorded. The percent of control activity was then calculated by comparing the peak area obtained in the presence of the diyne potassium salt and in the absence.

Cytochrome P450 2B6 = Cytochrome P450 2B6 (Homo sapiens, UniProt P20813); assay: Inhibition of cytochrome P450 enzymes; type: in vitro ADME; details: substrate bupropion
Sequence of Cytochrome P450 2B6 (P20813 whole entry): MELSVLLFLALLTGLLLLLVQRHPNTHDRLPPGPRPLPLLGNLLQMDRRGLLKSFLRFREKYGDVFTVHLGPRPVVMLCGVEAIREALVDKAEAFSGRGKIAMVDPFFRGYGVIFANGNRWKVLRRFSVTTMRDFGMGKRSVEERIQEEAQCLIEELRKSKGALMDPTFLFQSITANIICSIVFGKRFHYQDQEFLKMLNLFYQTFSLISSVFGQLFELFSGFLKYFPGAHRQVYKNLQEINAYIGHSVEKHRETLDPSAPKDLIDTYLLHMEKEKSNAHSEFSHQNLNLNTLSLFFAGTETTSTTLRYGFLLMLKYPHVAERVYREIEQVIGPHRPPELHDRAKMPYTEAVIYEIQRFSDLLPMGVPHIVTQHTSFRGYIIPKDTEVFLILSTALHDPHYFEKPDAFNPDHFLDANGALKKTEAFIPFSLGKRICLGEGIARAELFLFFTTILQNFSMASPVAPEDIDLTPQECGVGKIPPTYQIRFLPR
Method: as §1

Cytochrome P450 2C8 = Cytochrome P450 2C8 (Homo sapiens, UniProt P10632); assay: Inhibition of cytochrome P450 enzymes; type: in vitro ADME; details: substrate paclitaxel
Sequence of Cytochrome P450 2C8 (P10632 whole entry): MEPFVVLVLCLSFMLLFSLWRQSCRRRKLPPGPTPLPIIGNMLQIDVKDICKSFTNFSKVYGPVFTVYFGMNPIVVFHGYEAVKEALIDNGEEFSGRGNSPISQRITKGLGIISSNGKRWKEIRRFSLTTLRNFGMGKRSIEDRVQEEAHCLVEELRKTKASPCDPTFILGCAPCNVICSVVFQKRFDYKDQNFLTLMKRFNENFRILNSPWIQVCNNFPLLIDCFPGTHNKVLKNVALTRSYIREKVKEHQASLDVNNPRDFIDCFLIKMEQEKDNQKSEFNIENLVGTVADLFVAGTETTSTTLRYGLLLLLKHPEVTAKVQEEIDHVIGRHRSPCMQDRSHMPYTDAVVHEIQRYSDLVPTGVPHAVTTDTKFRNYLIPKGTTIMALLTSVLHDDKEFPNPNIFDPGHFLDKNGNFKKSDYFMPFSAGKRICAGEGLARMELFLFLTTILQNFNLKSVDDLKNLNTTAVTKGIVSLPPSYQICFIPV
Method: as §1

Cytochrome P450 2D6 = Cytochrome P450 2D6 (Homo sapiens, UniProt P10635); assay: Inhibition of cytochrome P450 enzymes; type: in vitro ADME; details: substrate dextromethorphan
Sequence of Cytochrome P450 2D6 (P10635 whole entry): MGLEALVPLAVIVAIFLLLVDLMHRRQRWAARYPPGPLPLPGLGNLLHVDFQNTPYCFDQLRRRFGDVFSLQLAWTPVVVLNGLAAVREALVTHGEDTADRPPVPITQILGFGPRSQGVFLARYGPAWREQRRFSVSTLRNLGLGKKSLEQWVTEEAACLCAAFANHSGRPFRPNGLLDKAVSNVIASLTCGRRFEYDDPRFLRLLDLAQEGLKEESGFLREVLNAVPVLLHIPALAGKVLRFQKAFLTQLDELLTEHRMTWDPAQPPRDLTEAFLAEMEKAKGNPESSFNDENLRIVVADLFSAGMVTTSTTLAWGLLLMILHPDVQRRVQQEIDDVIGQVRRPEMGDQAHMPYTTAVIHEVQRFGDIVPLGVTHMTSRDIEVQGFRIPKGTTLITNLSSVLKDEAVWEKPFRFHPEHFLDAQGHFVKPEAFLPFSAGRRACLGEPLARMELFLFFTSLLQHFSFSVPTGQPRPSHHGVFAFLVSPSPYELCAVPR
Method: as §1

Cytochrome P450 3A = assay: Inhibition of cytochrome P450 enzymes; type: in vitro ADME; details: 10 μM
Method: as §1

Cytochrome P450 1A = assay: Inhibition of cytochrome P450 enzymes; type: in vitro ADME; details: substrate ethoxyresorufin; 10 μM
Method: as §1

Cytochrome P450 2C9 = Cytochrome P450 2C9 (Homo sapiens, UniProt P11712); assay: Inhibition of cytochrome P450 enzymes; type: in vitro ADME; details: substrate diclofenac
Sequence of Cytochrome P450 2C9 (P11712 whole entry): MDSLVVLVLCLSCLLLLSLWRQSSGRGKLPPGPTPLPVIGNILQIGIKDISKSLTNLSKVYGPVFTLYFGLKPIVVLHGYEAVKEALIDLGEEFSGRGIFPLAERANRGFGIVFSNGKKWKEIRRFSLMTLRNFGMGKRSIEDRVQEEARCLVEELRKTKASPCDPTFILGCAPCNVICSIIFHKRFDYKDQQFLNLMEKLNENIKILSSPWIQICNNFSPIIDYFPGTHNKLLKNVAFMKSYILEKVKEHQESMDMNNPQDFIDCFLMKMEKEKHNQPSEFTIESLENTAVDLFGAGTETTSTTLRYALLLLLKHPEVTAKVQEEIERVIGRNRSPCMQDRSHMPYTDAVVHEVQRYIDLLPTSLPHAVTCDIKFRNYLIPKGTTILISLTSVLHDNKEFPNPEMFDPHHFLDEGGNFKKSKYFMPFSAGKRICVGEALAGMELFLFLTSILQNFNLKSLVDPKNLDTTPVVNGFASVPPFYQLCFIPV
Method: as §1

CYP1A = assay: Inhibition of cytochrome P450 enzymes; type: in vitro ADME; details: human, probe ethoxyresorufin; substrate ethoxyresorufin
Method: as §1

Cytochrome P450 2C19 = Cytochrome P450 2C19 (Homo sapiens, UniProt P33261); assay: Inhibition of cytochrome P450 enzymes; type: in vitro ADME; details: substrate omeprazole
Sequence of Cytochrome P450 2C19 (P33261 whole entry): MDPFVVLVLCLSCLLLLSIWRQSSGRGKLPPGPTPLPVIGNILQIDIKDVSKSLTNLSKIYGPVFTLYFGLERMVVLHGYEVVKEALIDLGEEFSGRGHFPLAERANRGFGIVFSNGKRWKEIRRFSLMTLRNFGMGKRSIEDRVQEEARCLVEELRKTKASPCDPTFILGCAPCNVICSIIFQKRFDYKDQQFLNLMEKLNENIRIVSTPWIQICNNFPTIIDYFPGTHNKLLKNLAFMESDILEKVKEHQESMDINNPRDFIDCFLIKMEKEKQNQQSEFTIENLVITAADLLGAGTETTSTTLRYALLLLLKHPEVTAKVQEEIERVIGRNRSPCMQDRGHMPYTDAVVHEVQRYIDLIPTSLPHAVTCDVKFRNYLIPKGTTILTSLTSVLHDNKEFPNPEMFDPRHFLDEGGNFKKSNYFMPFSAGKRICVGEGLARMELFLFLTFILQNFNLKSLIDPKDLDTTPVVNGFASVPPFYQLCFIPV
Method: as §1

GVS moisture sorption = type: physicochemical; details: 25° C.
Method: Sorption isotherms were obtained using a Hiden IGASorp moisture sorption analyser, controlled by CFRSorp software. The sample temperature was maintained at 25° C. by a Huber re-circulating water bath. The humidity was controlled by mixing streams of dry and wet nitrogen, with a total flow rate of 250 ml.min-1. The relative humidity (RH) was measured by a calibrated Vaisala RH probe (dynamic range of 0-95% RH), located near the sample. The weight change, (mass relaxation) of the sample as a function of % RH was constantly monitored by the microbalance (accuracy ±0.001 mg). Typically 10-20 mg of sample was placed in a tared mesh stainless steel basket under ambient conditions. The sample was loaded and unloaded at 40% RH and 25° C. (typical
room conditions). A moisture sorption isotherm was performed. The software uses a least squares minimisation procedure together with a model of the mass
relaxation, to predict an asymptotic value. The measured mass relaxation value must be within 5% of that predicted by the software, before the next % RH value is selected. The sample was recovered after completion of the isotherm and re-analysed by XRPD.

Candida albicans = assay: Growth inhibition alone and combined with Amphotericin B (visual); type: cell-based; details: 2 μg/ml and lower
Method: (§2) Potassium (Z)-14-(furan-2-yl)tetradeca-9-en-11,13-diynoate was tested against Aspergillus fumigatus and various Candida species alone to determine antifungal activity and in various combinations with Amphotericin B to determine if any synergistic or antagonistic interactions may occur.
(§3) Amphotericin B and potassium (Z)-14-(furan-2-yl)tetradeca-9-en-11,13-diynoate were added to an in vitro culture of different fungi in various concentrations and the culture was visually inspected. If there is inhibition of growth the culture will remain optically clear, whereas growth results in a hazy culture. The results are shown in FIG. 5, where 0 means optically clear (i.e. no growth), 1 means slightly hazy, 2 means prominent decrease (at least 50%) in visible growth, 3 means slight reduction in visible growth and 4 means no reduction in visible growth.

Candida glabrata = assay: as above; type: cell-based
Method: as §2, §3

Candida parapsilosis = assay: as above; type: cell-based; details: 2 μg/ml and lower
Method: as §2, §3

Aspergillus fumigatus = assay: as above; type: cell-based
Method: as §2, §3

Coccidioides spp. = assay: microbe, parasite or virus in culture; type: cell-based
C. lusitaniae = assay: In vitro antifungal activity vs. yeasts (MIC/MFC); type: cell-based; details: Clavispora lusitaniae, C. lusitaniae (n = 1)
M. gypseum = assay: In vitro antifungal activity vs. dermatophytes (MIC/MFC); type: cell-based; details: M. gypseum (n = 1)
yeasts = assay: MFC range over yeasts tested; type: cell-based, Candida and Malassezia strains; details: Table 13 strains
Text: The fungal isolates tested in this study to evaluate the antifungal activity of (Z)-14-([…]-11,13-diynoic acid, 14-([…]-11,13-diynoic acid, (Z)-14-([…]-11,13-diynoic acid, potassium salt and comparators are clinical isolates collected from patients and deposited at the culture collection of the Center for Medical Mycology. Tested isolates included: Candida albicans, C. glabrata, C. guilliermondii, C. krusei, C. lipolytica, C. lusitaniae, C. parapsilosis, C. tropicalis and Malassezia furfur. Dermatophyte strains included Trichophyton rubrum, T. mentagrophytes, T. tonsurans, T. terrestre, Epidermophyton floccosum, Microsporum canis, M. cookie, M. gallinae, M. gypseum, and M. vanbreuseghemii. […] The plates were then streaked with an inoculating loop to remove the cells from the drug source.

C. albicans = assay: Time course of the fungicidal effect; type: cell-based; details: after 3 hours of incubation
Text: Samples were removed periodically, filtered, washed and plated onto nutrient agar.

[1] = system: T. rubrum, Terbinafine resistant isolates; assay: In vitro antifungal activity vs. dermatophytes (MIC/MFC); type: cell-based
Epidermophyton floccosum = assay: as above; type: cell-based; details: Epidermophyton floccosum (n = 15)
C. parapsilosis = assay: In vitro antifungal activity vs. yeasts (MIC/MFC); type: cell-based; details: Lodderomyces parapsilosis, C. parapsilosis (n = 2)

Structure (SMILES): O=C([O-])CCCCCCC/C=C\C#CC#Cc1ccco1.[K+] [Compound IV″, potassium (Z)-14-(furan-2-yl)tetradeca-9-en-11,13-diynoate]
- IC50 (CYP3A; probe midazolam, substrate midazolam): 45 µM
- IC50 (CYP3A; probe testosterone, substrate testosterone): 57 µM
- IC50 (Cytochrome P450 2B6): 24 µM
- % control at 10 μM (Cytochrome P450 2B6; 10 μM): 82%
- IC50 (Cytochrome P450 2C8): > 100 µM
- % control at 10 μM (Cytochrome P450 2C8; 10 μM): 84%
- IC50 (Cytochrome P450 2D6): > 100 µM
- % control at 10 μM (Cytochrome P450 2D6; 10 μM): 88%
- % control at 10 μM (Cytochrome P450 3A; substrate midazolam): 85%
- % control at 10 μM (Cytochrome P450 3A; substrate testosterone): 90%
- % control at 10 μM (Cytochrome P450 1A): 92%
- IC50 (Cytochrome P450 2C9): 18 µM
- % control at 10 μM (Cytochrome P450 2C9; 10 μM): 74%
- IC50 (CYP1A): 59 µM
- IC50 (Cytochrome P450 2C19): 32 µM
- % control at 10 μM (Cytochrome P450 2C19; 10 μM): 84%
- moisture uptake behaviour (GVS moisture sorption; GVS): takes up very little moisture until it reaches approximately 70-80% RH
- moisture uptake in weight (GVS moisture sorption; at 90% RH): 28%
- inhibition of growth (Candida albicans): clearly inhibits growth
- interaction with Amphotericin B (Candida glabrata): Synergism was observed
- inhibition of growth (Candida glabrata; 2 μg/ml and lower): clearly inhibits growth
- inhibition of growth by the combination (Candida glabrata; AmphothericinB/potassium salt 250/2.5 ng/ml or 125/10 ng/ml): clearly inhibit growth
- inhibition of growth (Candida parapsilosis): clearly inhibits growth
- interaction with Amphotericin B (Aspergillus fumigatus): Synergism was observed
- MIC90/MIC range 48 h (Coccidioides spp.; Coccidioides spp. (n = 30), MIC90): 30 ng/mL
- MIC90 (Coccidioides spp.; Coccidioides, 48 h): 30 ng/mL

Structure (SMILES): O=C(O)CCCCCCC/C=C\C#CC#Cc1ccco1 [Compound III″]
- MFC (C. lusitaniae): < 0.06 ng/mL
- MIC (C. lusitaniae; 90% inhibition endpoint, read-out: MIC): < 0.06 ng/mL
- MIC90/MIC range 48 h (M. gypseum; 48 h): <0.06 ng/mL
- MIC (M. gypseum; Nannizzia gypsea, 96 h, 35° C., 4 days): < 0.06 ng/mL
- MFC (M. gypseum; Nannizzia gypsea): 16000 ng/mL (≈ 56300 nM)
- MFC range against yeasts (yeasts): <0.06 to 32000 ng/mL
- reduction in C. albicans CFUs (C. albicans): > 3 log
- MIC90/MIC range 48 h ([1]; T. rubrum, Terbinafine resistant isolates (n = 9), 48 h): <0.06 ng/mL
- MIC ([1]; Trichophyton rubrum, 96 h, T. rubrum (TERB-resistant) (n = 9), 35° C., 4 days): < 0.06 ng/mL
- MFC ([1]; Trichophyton rubrum, T. rubrum (TERB-resistant) (n = 9)): < 0.06 ng/mL
- MIC (Epidermophyton floccosum; 96 h, 35° C., 4 days): < 0.06 ng/mL
- MFC (Epidermophyton floccosum): 15 ng/mL (≈ 52.8 nM)
- MIC90/MIC range 48 h (Epidermophyton floccosum; MIC90, 48 h): <0.06 ng/mL
- MFC (C. parapsilosis): 32000 ng/mL (≈ 113000 nM)
- MIC (C. parapsilosis; 90% inhibition endpoint): 4000 ng/mL (≈ 14100 nM)
